Data taken from US20080317857A1, “V-Atpase Inhibitors of Use in the Treatment of Septic Shock” (Brane Discovery S.r.l., priority 2005, published 2008).

Columns and labels:
[1] = tested on: Lymphocytes; experiment: Chemotaxis assay, lymphocytes (transwell); format: cell-based; settings: Homo sapiens, Lymphocyte
Description: (§1) PMNs and monocytes migration was assessed using 1 or 3-μm pore size transwells (Bio-Coat Becton-Dickinson), while lymphocytes by using 5-μm pore size transwells.
(§2) Cells were in RPMI1640, containing 10% heat-inactivated Fetal Calf Serum (FCS) and 20 mM HEPES, pH 7.3, at 2×10^6/ml. 100 μl of cell suspension were added to the top well, and 600 μl of medium, containing chemoaftractants and test compound, were added to the bottom well. Migration was evaluated after 2 h for PMNs and monocytes and after 4 h for lymphocytes. fMLP 10 nM (PMNs and monocytes) and MIP-3β 100 nM (lymphocytes) were utilized as chemoattractants. After fixation with 1.5% glutaraldehyde, migrated cells were counted by fluorescence-activated cell sorting using polystyrene beads (Polyscience) as an internal standard (Campbell J. J. et al. J. Cell. Biol. 134, 255-266, 1996; Laudanna C. et al. J. Biol. Chem. 273, 46, 30306-30315, 1998).
(§3) Results are expressed as percentage of inhibition over control (=100%), and are the mean of three experiments.

[2] = tested on: endotoxic shock induced by LPS in C57BI/6 male mice; experiment: Septic shock animal model (LPS-induced endotoxic shock), survival; format: in vivo
Excerpt: The model is represented by endotoxic shock, the most common type of septic shock in humans.
The septic shock has been induced in 8-10 week-old C57BI/6 male mice (Harlan-Nossan laboratories) by high concentrations of LPS (lipopolysaccharide), that is considered a reliable experimental model for human endotoxic shock (Garrido et al., Acta Chir. Bras., 19, 2004).
LPS from Escherichia coli 0127:B7 (Sigma) was solubilized in PBS containing 2% fetal calf serum (FCS) as a source of “LPS binding protein”, a molecule that increases the endotoxin action. Mice received 37.5 mg/kg LPS/endotoxin intraperitoneally (i.p.). Animals (ten/group) were monitored at least four times daily and survival of animals was determined in control and treated mice (Lowell C. A. et al., PNAS 95, 7580, 1998).
In the preventive study (FIG. 3), control mice received only vehicle, while treated mice received 70 mg/kg i.p. of Compound of Example 1 two hours before the administration of LPS.
In the therapeutic study (FIG. 4), control mice received only vehicle, while treated mice received both 70 mg/kg i.p. of Compound of Example 1 (3 hours after LPS administration) and 10 mg/kg i.v. (intravenously) (12 hours after LPS administration).

[3] = tested on: murine encephalitogenic T lymphocytes in inflamed brain venules; experiment: Intravital microscopy: lymphocyte recruitment in inflamed brain microcirculation; format: in vivo, mice (SJL); settings: cells treated with 50 μM for 1 h
Description: Murine encephalitogenic T lymphocytes were labeled with either green CMFDA (5-chloromethylfluorescein diacetate; Molecular Probes) or orange CMTMR (5-(and-6)-(((4-chloromethyl)benzoyl)amino)tetramethylrhodamine) (Molecular Probes). SJL young females (Harlan-Nossan, Udine, Italy) were housed and used according to current European Community rules. In order to inflame brain endothelium, mice were injected intraperitoneally with 12 μg lipopolysaccharide (LPS) (Escherichia coli 026:B6; Sigma) 5 to 6 hours before the intravital experiment was started. […] Fluorescence-labeled cells (2×10^6)/condition were slowly injected into the carotid artery through a digital pump. Images were visualized by using a silicon-intensified target videocamera (VE-1000 SIT; Dage MTI, Michigan City, Ind.) and a Sony SSM-125CE monitor and were recorded using a digital videocassette recorder (NV-DV10000; Panasonic).
Video analysis was performed by playback of digital videotapes. Vessel diameter (D), hemodynamic parameters, and the velocities of rolling were determined by using a personal computer-based system. The velocities of 20 or more consecutive freely flowing cells per venule were calculated.
From the velocity of the fastest cell in each venule (Vfast), we calculated the mean blood flow velocities (Vm): […]. […]

[4] = tested on: Monocytes; experiment: Chemotaxis assay, monocytes (transwell); format: cell-based; settings: Homo sapiens, Monocyte
Description: as §1, §2, §3

## COC(=O)c1[nH]c2cc(OC)c(OC)cc2c1-c1ccc(OC)cc1 [Example 1]
[1]; [cpd] 2.5 μM, read-out: Inhibition of Chemotaxis (%) Lymphocytes (MIP3-β)
  inhibition at 2.5 µM: 11.6%
[1]; [cpd] 5 μM, read-out: Inhibition of Chemotaxis (%) Lymphocytes (MIP3-β) (converted)
  inhibition at 5 µM: 27.2%
[1]; [cpd] 10 μM, read-out: Inhibition of Chemotaxis (%) Lymphocytes (MIP3-β) (converted)
  inhibition at 10 µM: 43.2%
[1]; [cpd] 25 μM, read-out: Inhibition of Chemotaxis (%) Lymphocytes (MIP3-β) (converted)
  inhibition at 25 µM: 53.3%
[1]; [cpd] 50 μM, read-out: Inhibition of Chemotaxis (%) Lymphocytes (MIP3-β) (converted)
  inhibition at 50 µM: 63.5%
[1]; [cpd] 100 μM, read-out: Inhibition of Chemotaxis (%) Lymphocytes (MIP3-β) (converted)
  inhibition at 100 µM: 86.9%
[2]; 70 mg/kg i.p. 3 hours and 10 mg/kg i.v. 12 hours after LPS, at 52 hours, control survival 0%
  survival, therapeutic study: 40%
[2]; 70 mg/kg i.p. two hours before LPS, at 90 hours, control mortality 100%
  mortality, preventive study: 20%
[2]; 70 mg/kg i.p. two hours before LPS, at 90 hours, control survival 0%
  survival, preventive study: 80%
[3]
  autoreactive lymphocyte rolling: no effect
  sticking/firm arrest: highly blocked
[4]; [cpd] 2.5 μM, read-out: Inhibition of Chemotaxis (%) Monocytes (fMLP)
  inhibition at 2.5 µM: 10.5%
[4]; [cpd] 5 μM, read-out: Inhibition of Chemotaxis (%) Monocytes (fMLP) (converted)
  inhibition at 5 µM: 15.5%
[4]; [cpd] 10 μM, read-out: Inhibition of Chemotaxis (%) Monocytes (fMLP) (converted)
  inhibition at 10 µM: 18.3%
[4]; [cpd] 25 μM, read-out: Inhibition of Chemotaxis (%) Monocytes (fMLP) (converted)
  inhibition at 25 µM: 47.4%
[4]; [cpd] 50 μM, read-out: Inhibition of Chemotaxis (%) Monocytes (fMLP) (converted)
  inhibition at 50 µM: 46.3%
[4]; [cpd] 100 μM, read-out: Inhibition of Chemotaxis (%) Monocytes (fMLP) (converted)
  inhibition at 100 µM: 75.5%
